Test results: US6436925B1, “Substituted benzamides, their production and their use as cysteine protease inhibitors” (Abbott Laboratories, priority 1998, dated 2002)

Molecular target: T1, calpain I (human μ-calpain) (Homo sapiens, UniProt P07384)
T1 construct: Human μ-calpain is isolated from erythrocytes; from tissue; host or cells: human erythrocytes
T1 sequence (P07384 1-714): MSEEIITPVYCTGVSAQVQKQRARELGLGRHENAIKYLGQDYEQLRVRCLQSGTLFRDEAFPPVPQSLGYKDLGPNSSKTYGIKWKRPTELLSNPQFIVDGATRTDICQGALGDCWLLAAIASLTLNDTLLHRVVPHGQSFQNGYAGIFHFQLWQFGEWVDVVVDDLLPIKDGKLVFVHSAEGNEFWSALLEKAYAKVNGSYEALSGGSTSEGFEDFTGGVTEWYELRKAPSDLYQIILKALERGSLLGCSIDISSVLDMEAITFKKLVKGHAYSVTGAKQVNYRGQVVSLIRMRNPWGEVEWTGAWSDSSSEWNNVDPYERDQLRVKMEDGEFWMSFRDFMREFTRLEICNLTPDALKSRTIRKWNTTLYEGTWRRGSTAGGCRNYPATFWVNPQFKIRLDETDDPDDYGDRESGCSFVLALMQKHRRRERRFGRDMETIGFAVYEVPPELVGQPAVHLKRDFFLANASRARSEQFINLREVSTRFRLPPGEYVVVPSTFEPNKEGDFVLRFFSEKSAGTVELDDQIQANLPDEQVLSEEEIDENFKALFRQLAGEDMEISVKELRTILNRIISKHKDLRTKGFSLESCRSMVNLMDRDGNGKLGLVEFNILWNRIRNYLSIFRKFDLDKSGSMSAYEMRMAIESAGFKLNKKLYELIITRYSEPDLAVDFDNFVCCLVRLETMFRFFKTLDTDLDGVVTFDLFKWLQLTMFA
T1 sequence (P04632 1-268 partner): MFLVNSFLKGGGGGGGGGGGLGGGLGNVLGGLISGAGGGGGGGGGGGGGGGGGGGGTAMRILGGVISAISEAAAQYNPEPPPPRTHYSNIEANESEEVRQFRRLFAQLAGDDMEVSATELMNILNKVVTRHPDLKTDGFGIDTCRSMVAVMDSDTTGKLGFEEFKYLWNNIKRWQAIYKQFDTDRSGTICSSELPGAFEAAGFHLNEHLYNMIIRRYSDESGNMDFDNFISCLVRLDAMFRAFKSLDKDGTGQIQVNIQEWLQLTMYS
Assay: Calpain I and II assay (fluorogenic substrate Suc-Leu-Tyr-AMC)
Type: biochemical
Method: The inhibitory effect of the benzamides I has been determined using enzyme assays known from the literature, determining as criterion of effect a concentration of the inhibitor at which 50% of the enzyme activity is inhibited (=IC50). The amides I were measured in this way for their inhibitory effect on calpain I, calpain II and cathepsin B.
The testing of the inhibitory properties of calpain inhibitors takes place in buffer with 50 mM tris-HCl, pH 7.5; 0.1 M NaCl; 1 mM dithiotreithol [sic]; 0.11 mM CaCl2, using the fluorogenic calpain substrate Suc-Leu-Tyr-AMC (25 mM dissolved in DMSO, Bachem/switzerland). Human μ-calpain is isolated from erythrocytes, and enzyme with a purity >95%, assessed by SDS-PAGE, Western blot analysis and N-terminal sequencing, is obtained after more [sic] chromatographic steps (DEAE-Sepharose, phenyl-Sepharose, Superdex 200 and blue Sepharose). The fluorescence of the cleavage product 7-amino-4-methylcoumarin (AMC) is followed in a Spex Fluorolog fluorimeter at λex=380 nm and λem =460 nm. […]
In a test mixture, 10 μl of substrate (250 μM final) and then 10 μl of μ-calpain (2 μg/ml final, i.e. 18 nM) are added to a 1 ml cuvette containing buffer. The calpain-mediated cleavage of the substrate is measured for from 15 to 20 min. […] Ki values are determined using the classical equation for reversible inhibition: […]

SMILES: O=C(N[C@@H](Cc1ccccc1)C(=O)CNS(=O)(=O)c1ccccc1)c1cccc(NS(=O)(=O)c2ccc3ccccc3c2)c1 [Example 1, 3(2-Naphthylsulfonamido)-N(3(S)-4-phenyl-1-phenylsulfonamidobutan-2-on-3-yl)benzamide]
- inhibition at 1 µM (at a concentration of 1 μM): > 50%
- Ki (calpain I, inferred from more than 50% inhibition at 1 μM): < 1000 nM
